The values below come from publication PMC8169668, “Discovery of a cooperative mode of inhibiting RIPK1 kinase” (Cell Discovery, 2021).

Format in all cases: cell-based
Experiment [1] deals with T1, RIPK1 (Mus musculus, UniProt Q60855).
T1 construct: endogenous RIPK1 (MEFs)
T1 sequence (Q60855 1-656): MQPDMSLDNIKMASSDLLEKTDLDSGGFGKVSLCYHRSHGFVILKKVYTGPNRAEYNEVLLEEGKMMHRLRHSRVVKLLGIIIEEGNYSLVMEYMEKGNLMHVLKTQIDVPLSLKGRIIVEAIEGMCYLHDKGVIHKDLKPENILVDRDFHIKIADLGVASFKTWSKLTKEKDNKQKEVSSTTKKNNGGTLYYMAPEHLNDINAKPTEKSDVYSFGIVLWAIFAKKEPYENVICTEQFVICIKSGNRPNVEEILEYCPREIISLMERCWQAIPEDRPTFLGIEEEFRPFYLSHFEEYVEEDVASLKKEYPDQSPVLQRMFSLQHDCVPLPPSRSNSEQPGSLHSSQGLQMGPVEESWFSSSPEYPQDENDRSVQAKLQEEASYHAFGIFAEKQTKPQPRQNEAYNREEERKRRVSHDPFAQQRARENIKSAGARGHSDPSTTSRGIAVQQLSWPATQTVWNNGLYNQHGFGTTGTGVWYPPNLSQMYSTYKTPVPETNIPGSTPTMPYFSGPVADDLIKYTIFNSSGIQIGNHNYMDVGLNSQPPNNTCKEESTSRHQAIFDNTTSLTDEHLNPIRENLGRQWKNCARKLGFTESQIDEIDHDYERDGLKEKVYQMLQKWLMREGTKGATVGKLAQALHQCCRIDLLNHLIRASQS
In words: CETSA in MEFs; p-S166 blot of mRIPK1-FKBP in L929 cells.

Experiment [2] addresses T2, RIPK1 (Homo sapiens, UniProt Q13546, L159V/D180S).
T2 construct: residues 1–330, Flag-tagged, in 293T cells
T2 sequence (Q13546 1-330 L159V/D180S): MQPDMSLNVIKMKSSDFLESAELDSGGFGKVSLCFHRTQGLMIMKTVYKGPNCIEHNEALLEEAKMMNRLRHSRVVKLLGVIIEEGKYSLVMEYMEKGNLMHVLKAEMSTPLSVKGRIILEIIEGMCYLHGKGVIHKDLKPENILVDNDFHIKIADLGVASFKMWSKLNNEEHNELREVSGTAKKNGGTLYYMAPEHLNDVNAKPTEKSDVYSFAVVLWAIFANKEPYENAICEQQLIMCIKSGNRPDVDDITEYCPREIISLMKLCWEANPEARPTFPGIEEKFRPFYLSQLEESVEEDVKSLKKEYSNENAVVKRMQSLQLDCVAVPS
Put plainly: p-S166 autophosphorylation blot, dose response.

For experiment [3], the target named is T3, RIPK1 (Homo sapiens, UniProt Q13546, S161A).
T3 construct: HA-tagged hRIPK1 S161A reconstituted in RIPK1-deficient Jurkat cells
T3 sequence (Q13546 1-671 S161A): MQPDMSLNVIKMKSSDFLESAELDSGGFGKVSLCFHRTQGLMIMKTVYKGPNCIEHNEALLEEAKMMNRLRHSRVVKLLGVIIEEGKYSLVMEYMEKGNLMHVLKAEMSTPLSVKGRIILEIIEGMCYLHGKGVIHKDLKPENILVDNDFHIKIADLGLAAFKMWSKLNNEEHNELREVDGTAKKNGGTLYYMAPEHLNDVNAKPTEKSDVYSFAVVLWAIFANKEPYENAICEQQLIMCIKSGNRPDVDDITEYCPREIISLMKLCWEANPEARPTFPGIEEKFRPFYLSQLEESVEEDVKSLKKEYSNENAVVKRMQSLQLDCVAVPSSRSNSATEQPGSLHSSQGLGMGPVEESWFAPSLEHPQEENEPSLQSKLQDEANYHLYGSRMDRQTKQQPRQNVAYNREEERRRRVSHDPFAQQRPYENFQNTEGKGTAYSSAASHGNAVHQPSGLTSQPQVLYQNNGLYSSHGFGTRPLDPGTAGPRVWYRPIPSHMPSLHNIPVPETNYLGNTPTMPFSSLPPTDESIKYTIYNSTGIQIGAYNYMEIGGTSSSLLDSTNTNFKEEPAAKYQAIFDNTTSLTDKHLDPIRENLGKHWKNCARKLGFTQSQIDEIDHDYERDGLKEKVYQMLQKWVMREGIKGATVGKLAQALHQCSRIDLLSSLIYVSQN
Put plainly: CETSA; p-S166 autophosphorylation blot.

For `Cc1ccc(C2CC(=O)NC(SCC(=O)Nc3nccs3)=C2C#N)cc1` (stereo not drawn) [Nec-34], the “CETSA in MEFs; p-S166 blot of mRIPK1-FKBP in L929 cells” value at RIPK1 [1] is “Nec-34 is able to bind endogenous RIPK1 in situ to increase its thermo-resistance”. Further, at RIPK1 [2], the “p-S166 autophosphorylation blot, dose response” value is recorded as “Nec-34 was more potent in inhibiting L159V/D180S hRIPK1 than WT-hRIPK1”. For the same compound, the “CETSA; p-S166 autophosphorylation blot” value on RIPK1 [3] was “Nec-34 stabilized reconstituted S161A mutant RIPK1 as well as WT-RIPK1 in the soluble fraction under elevated temperatures”.
